In this assay the test system is MERS-CoV. In kind it is cell-based, MERS-CoV (CoV/KOR/KNIH/002_05_2015) in Vero cells.

No end group written: not given here.

Take “SLTQINWTLLDLTYEMESLQQVVKALNEYYIDLKEL [Peptide 5]”: the “inhibition of MERS-CoV / decrease in plaque formation (in words)” value was “strong inhibition”.

Values taken from US10975126B1 (priority 2020, dated 2021).
